Legend:
DAT = molecular target: T1, DAT (Homo sapiens, UniProt Q01959); assay: Radioligand binding competition dose-response (Euroscreen), dopamine transporter
T1 construct: Euroscreen FAST (contract assay)
Description: (§1) This study included binding assays (87 GPCR targets), measured as % of binding inhibition of a reference radioligand, as well as uptake and enzyme assays (19 targets), the latter measured as % inhibition of control enzyme activity. […] It was performed by radioligand binding competition by Euroscreen (Euroscreen FAST, Belgium). The following nanomolar concentrations were tested in duplicate: 0.001, 0.01, 0.1, 1, 10, 100, 1000, 10,000. Dose–response curves were fitted with the least squares method. IC50 results are shown as pIC50, corresponding to the negative log10 of IC50 in molar.

[1] = test system: microglia related genes in the cervical and thoracic spinal cord; assay: RT-qPCR of microglia related genes in spinal cord; assay type: in vivo, Sod1^G86R mice
Description: We then sought to characterize whether BW modulated microglial physiology and used RT-qPCR to measure microglia related genes in the cervical and thoracic spinal cord of animals treated with either vehicle or 3 mg/kg/d of BW. […] We next wanted to see if these changes in gene expression were accompanied by modification of microglial activation in spinal cord of treated mice. Iba1 + cells were classified in 4 different activation states (resting, activated, phagocytic or dystrophic).
Total RNA was extracted from the cervical and thoracic spinal cord of end stage mice using TRIzol (Invitrogen). Reverse transcription was performed using 1 μg of RNA and the iScript cDNA synthesis kit (BioRad). IQ SYBR green Supermix (BioRad) was used to perform RT-PCR. Data were normalized with GeNorm software (RRID: SCR_006763)[25]. Three reporter genes were used for normalization: POL2, TBP and Actin. Oligonucleotide primers are provided in Supplementary Table S1.

5-HT2B [2] = molecular target: T2, 5-HT2B (Homo sapiens, UniProt P41595); assay: biochemical; settings: read-out: %Binding inhibition at 10 µM, dose-response study, maximal concentration 10 µM, [3H]mesulergine
5-HT2C = molecular target: T3, 5-HT2C (Homo sapiens, UniProt P28335); assay: Single-concentration radioligand binding screen (Eurofins Cerep), 5-HT2C; settings: single concentration 10 µM screen, [3H]mesulergine
T3 construct: Euroscreen FAST (contract assay)
T3 sequence (P28335 33-458): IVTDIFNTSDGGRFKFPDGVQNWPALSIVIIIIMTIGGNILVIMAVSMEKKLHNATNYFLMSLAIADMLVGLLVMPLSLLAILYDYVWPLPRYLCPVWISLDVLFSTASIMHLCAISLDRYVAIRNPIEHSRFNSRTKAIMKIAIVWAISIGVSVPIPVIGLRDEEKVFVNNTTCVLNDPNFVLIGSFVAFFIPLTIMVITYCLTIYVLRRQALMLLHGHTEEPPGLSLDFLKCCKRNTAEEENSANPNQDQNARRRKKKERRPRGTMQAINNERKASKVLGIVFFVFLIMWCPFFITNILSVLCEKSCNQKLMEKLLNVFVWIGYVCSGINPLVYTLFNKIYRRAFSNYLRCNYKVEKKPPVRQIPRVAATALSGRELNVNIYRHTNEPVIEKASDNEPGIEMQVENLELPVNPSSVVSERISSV
Description: as §1

in vivo = settings: CD-1, mouse, po, 10 mg/kg
mitral valve = assay: Mitral valve thickness by histology (hematoxylin/eosin); assay type: in vivo; settings: Sod1^G86R mice, 3 mg/kg/d; vehicle 57.7 µm
Description: To this aim, we measured mitral valve thickness using histology (Fig. 3). […] The lack of beneficial effect of BW on survival and motor function is not due to the developpement of valvulopathy nor cardiac failure. Thus, BW is not protective in Sod1^G86R mice independently of any potential cardiotoxicity.
After dissection and rinse with PBS 1X, hearts were fixed for 72 h in formaldehyde 4% solution. After paraffin inclusion, cuts of 4 µm thickness were made. Hematoxylin/eosin staining was performed on these cuts. Inclusion and staining were performed by the department of histopathology and embyology of the mouse clinical institute (ICS, Illkirch-Graffenstaden). Valve imaging was performed with a Leica DFC425C camera mounted on a microscope Leica DM750, at × 10 magnification (cat# 506228, 10x/0.25 HI PLAN ∞/−), with LAS V4.8 software (Leica Microsystems). […] Average thickness was determined by rapporting the area on the length of the leaflet.

Sod1^G86R mice = assay: Body weight, grip strength, onset and survival follow-up in ALS mouse model; assay type: in vivo; settings: for median survival: p > 0.05 vs vehicle (109 days)
Source text: Osmotic mini-pumps were collected at endstage, and mini-pump emptying was systematically checked. After mini-pump implantation, mice were longitudinally followed for body weight, grip strength and survival.
To this aim, we measured mitral valve thickness using histology (Fig. 3).
Sod1^G86R mice on FVB/N background were produced by rapid lineage extension at Charles River facility, France. The resulting animals were F1 hybrid FVB/NRj and FVB/NCrl. During experimentation, mice were housed at the animal facility of the Faculty of Medicine of the University of Strasbourg, in a conventional sanitary status. […] We included both females and males in equal proportions. […] Mice were sacrificed at end-stage by lethal intraperitoneal injection of pentobarbital (Doléthal 120 mg/kg, Vetoquinol, France). Spinal cord, brain and blood samples were then collected. All animal care and procedures were in accordance with institutional guidelines and European regulations.
Mice were visually monitored daily for any potential ethical issue. Body weight and muscular strength were monitored twice a week. Muscular strength was assessed using a gripmeter test (ALG01, Bioseb, France). Results are the mean of three successive measures and were normalized by body weight. Onset of the pathology was calculated as the time between birth and peak of body weight. Duration of the disease is the time between onset and death of the mouse. End-stage was defined as the inability of the animal to turn around after 3 s placed on the back, and subsequent euthanasia followed. Muscular strength and weight loss are presented as percent loss from disease onset. […] Survival is presented as Kaplan–Meier curves.

5-HT1B = molecular target: T4, 5-HT1B (Homo sapiens, UniProt P28222); assay: Radioligand binding competition dose-response (Euroscreen), 5-HT1B
T4 construct: Euroscreen FAST (contract assay)
Description: as §1

5-HT2B receptor = settings: cited from earlier work
Ca^2+ channel, vs = assay: Radioligand binding competition dose-response (Euroscreen), Ca2+ channel verapamil site
Description: as §1

5-HT2B [3] = molecular target: T2, 5-HT2B; settings: dose-response study, maximal concentration 10 µM, [3H]mesulergine

T4 sequence (P28222 whole entry, species assumed): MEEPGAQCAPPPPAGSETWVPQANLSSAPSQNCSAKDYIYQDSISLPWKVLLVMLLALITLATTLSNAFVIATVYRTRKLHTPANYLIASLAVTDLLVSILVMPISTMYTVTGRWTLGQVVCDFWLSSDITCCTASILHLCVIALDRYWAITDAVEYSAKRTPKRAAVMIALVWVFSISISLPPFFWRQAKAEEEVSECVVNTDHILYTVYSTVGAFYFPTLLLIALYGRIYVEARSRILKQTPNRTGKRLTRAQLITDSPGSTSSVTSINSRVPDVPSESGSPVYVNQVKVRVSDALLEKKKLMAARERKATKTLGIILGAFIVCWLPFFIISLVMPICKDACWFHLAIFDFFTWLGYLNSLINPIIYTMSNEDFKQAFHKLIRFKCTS
T1 sequence (Q01959 whole entry, species assumed): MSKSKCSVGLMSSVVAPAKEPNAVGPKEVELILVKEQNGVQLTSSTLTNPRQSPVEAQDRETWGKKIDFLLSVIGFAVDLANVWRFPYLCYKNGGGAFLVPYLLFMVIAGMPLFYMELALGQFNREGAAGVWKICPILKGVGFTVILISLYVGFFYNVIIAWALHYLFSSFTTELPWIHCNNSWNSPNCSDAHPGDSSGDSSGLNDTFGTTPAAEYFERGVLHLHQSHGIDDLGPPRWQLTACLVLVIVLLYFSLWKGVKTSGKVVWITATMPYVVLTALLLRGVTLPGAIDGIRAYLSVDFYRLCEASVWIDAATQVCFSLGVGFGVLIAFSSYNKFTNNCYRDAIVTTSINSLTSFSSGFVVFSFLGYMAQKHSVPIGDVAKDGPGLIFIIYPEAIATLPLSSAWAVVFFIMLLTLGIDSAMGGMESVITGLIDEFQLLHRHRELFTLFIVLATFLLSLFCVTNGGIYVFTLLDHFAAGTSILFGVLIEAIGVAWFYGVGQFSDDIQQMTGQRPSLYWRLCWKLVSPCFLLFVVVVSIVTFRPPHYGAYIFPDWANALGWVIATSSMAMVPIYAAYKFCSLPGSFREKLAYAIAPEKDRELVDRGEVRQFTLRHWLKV
T2 sequence (P41595 whole entry, species assumed): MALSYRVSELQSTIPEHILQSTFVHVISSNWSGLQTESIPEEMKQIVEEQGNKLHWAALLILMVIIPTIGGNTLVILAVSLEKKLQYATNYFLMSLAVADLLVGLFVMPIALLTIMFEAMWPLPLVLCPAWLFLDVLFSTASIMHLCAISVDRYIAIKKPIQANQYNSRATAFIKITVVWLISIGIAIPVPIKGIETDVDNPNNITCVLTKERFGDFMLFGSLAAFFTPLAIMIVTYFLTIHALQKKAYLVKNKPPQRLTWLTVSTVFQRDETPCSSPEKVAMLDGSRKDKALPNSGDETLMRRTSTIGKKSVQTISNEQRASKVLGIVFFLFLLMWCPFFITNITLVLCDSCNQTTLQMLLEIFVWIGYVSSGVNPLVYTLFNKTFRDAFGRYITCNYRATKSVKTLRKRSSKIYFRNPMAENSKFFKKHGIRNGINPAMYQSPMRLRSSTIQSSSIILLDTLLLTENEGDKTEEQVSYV

With `CC(N)Cc1c[nH]c2ccc(OCc3cccs3)cc12` (stereo not shown) [BW, 1-[5-(thiophen-2-ylmethoxy)-1H-indol-3-yl]propan-2-amine] the IC50 (DAT) was 741 nM, the inhibition at 10 µM (DAT; read-out: %Binding inhibition at 10 µM) was 73.2% and the “Hexb upregulation in Sod1^G86R mice” value ([1]; 3 mg/kg/d, spinal cord RT-qPCR) was “partially prevented”. For the same molecule, the “disease-associated upregulation of Nox2” value ([1]; 3 mg/kg/d, spinal cord RT-qPCR) was “partially prevented”, the “disease-associated upregulation of Tyrobp (DAP12)” value ([1]; 3 mg/kg/d, spinal cord RT-qPCR) was “partially prevented” and the “upregulation of disease-associated microglia marker Apoe” value ([1]; 3 mg/kg/d, spinal cord RT-qPCR) was “blunted the upregulation”. The “upregulation of disease-associated microglia marker Cd9” value ([1]; 3 mg/kg/d, spinal cord RT-qPCR) was “blunted the upregulation”, the “upregulation of disease-associated microglia marker Cst7” value ([1]; 3 mg/kg/d, spinal cord RT-qPCR) was “blunted the upregulation” and the “upregulation of disease-associated microglia marker Lpl” value ([1]; 3 mg/kg/d, spinal cord RT-qPCR) was “blunted the upregulation”. The Tmem119 expression ([1]; Sod1^G86R mice with BW treatment) was “downregulated”, the inhibition at 10 µM (5-HT2B [2]) was 100% and the inhibition at 10 µM (5-HT2C) was 97.8%. It also gave a Tmax (in vivo) of 30 min, a mitral valve thickness (mitral valve) of 60.2 µm and a median survival (Sod1^G86R mice; 1 mg/kg/d) of 107 days. The median survival (Sod1^G86R mice; 3 mg/kg/d) was 109 days, the disease onset (Sod1^G86R mice; 1 or 3 mg/kg/d, compared to vehicle) was “unchanged” and the IC50 (5-HT1B) was 182 nM. For the same molecule, the “%Binding inhibition at 10 µM” value (5-HT1B; dose-response study, maximal concentration 10 µM, [3H]5-CT, 10 µM) was 101.39%, the inhibition at 10 µM (5-HT1B; read-out: %Binding inhibition at 10 µM, dose-response study, maximal concentration 10 µM, [3H]5-CT) was 100% and the “agonist activity in rat stomach fundus” value (5-HT2B receptor) was “potent agonist”. The pIC50 (Ca^2+ channel, vs; [3H]D888 competition) was 5.21, the “%Binding inhibition at 10 µM” value (Ca^2+ channel, vs; dose-response study, maximal concentration 10 µM, [3H]D888) was 51.29% and the “pIC50 difference as compared to 5-HT2BR” value (Ca^2+ channel, vs; verapamil site of calcium channel vs 5-HT2BR) was 2.3 log10. For the same molecule, the “%Binding inhibition at 10 µM” value (5-HT2B [3]) was 103.54%.

Reference: article PMC8654833 (Scientific Reports, 2021)
